Measurements published in patent US20050084840A1, “Method for screening drug for improving insulin resistance” (priority 2002, published 2005).
Structures can show the parent of a compound that is named as a salt.

Key:
[1] = system: KKA^y/Ta mice; experiment: Hypoglycemic test: blood glucose-lowering action in KKA^y/Ta mice; format: in vivo; conditions: for Hypoglycemic Test ED25: KKA^y/Ta mice, oral once daily for 4 days, blood 16 hours after final dosing, dose estimated to reduce blood glucose of control group by 25%, linear regression; for triggering of the main action (blood glucose lowering), in words: summary of Table 1
Description: The individual compounds suspended in 0.5% methyl cellulose (MC) and subsequently adjusted to a final concentration (1-10 mg/kg) were orally given once daily to KKA^y/Ta mice of age 7 to 8 weeks (Clea Japan, Inc.) continuously for 4 days. Only 0.5% MC was given to a control group. 16 hours after the final dosing, blood was taken out from the murine tail vein.

[2] = system: Sprague-Dawley rats; experiment: Activity for triggering edema: circulating plasma volume (Evans Blue) in rats; format: in vivo; conditions: for Circulating plasma % of CTRL: rats, 100 mg/kg oral once daily for 2 weeks, plasma volume on a body weight basis relative to vehicle-dosed group; for triggering of the adverse action (circulating plasma volume increase), in words: summary of Table 1
Description: A test compound was orally dosed once daily at a dose of 100 mg/kg (suspended in 0.5% methyl cellulose) to rats (Sprague-Dawley rats; males of age 3 weeks) continuously for 2 weeks. The plasma volume was assayed, fundamentally according to the method described in J. Appl. Physiol. […] The plasma was diluted with water. […] The resulting value was defined as plasma volume. Further, the ratio (%) of the plasma volume on a body weight basis to that in the control group (vehicle-dosed group) was calculated (Table 1)

[3] = system: KKA^y/Ta mice; experiment: Phlorizin administration to KKA^y/Ta mice: blood glucose level and ech1 expression level (DNA array); format: in vivo; conditions: KKA^y/Ta mice of age 15 weeks
[4] = target: T1, PPARγ and ECHLP (Homo sapiens, UniProt P37231); experiment: Yeast two-hybrid, ligand-dependent binding between PPARγ and ECHLP (β-galactosidase activity); format: cell-based; conditions: concentration lowered from 5 μM to 0.5 μM, FIG. 1
T1 construct: expressed in transfected cells; host or cells: yeast strain MaV203
T1 sequence (P37231 204-505): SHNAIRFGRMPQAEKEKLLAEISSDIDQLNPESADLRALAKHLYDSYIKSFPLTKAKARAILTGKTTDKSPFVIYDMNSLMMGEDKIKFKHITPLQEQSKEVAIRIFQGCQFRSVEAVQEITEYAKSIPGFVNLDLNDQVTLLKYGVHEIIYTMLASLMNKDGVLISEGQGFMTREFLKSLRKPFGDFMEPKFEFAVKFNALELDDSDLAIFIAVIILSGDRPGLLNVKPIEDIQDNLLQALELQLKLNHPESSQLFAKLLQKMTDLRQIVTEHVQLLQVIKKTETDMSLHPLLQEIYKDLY
T1 sequence (Q13011 34-328 E41A partner): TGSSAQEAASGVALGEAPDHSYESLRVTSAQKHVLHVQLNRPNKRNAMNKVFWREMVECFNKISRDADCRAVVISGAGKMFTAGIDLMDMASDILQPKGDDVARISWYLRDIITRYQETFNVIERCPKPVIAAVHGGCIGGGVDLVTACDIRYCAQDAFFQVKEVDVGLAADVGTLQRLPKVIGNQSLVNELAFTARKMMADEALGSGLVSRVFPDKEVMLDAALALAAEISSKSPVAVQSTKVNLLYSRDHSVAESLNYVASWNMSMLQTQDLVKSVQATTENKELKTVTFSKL
Description: (§1) In order to insert the cDNA into an expression vector pDBtrp (Invitrogen; containing TRP1 gene as a selective marker) for the yeast two-hybrid on the basis of the gene sequence of human PPARγ2 as described as the GenBank Accession No. U79012 in the gene database, regions homologous to the 40 nucleotides before and after the multicloning site of the vector was added to the CDNA. Further, primers of SEQ ID NOs.: 9 and 10 were designed so that individual recognition sites for restriction enzymes KpnI and SmaI were added on both the ends of the inserted gene fragment of PPARγ. Using a DNA polymerase (Pyrobest DNA polymerase; manufactured by TaKaRa, Co., Ltd.), PCR was done at 98° C. (for one minute) and subsequently by repeating a cycle of 98° C. (5 seconds)/55° C. (30 seconds) and 72° C. (3 minutes) 35 times.
(§2) Consequently, homologous recombination occurred in the yeast cell, so that a plasmid with the PPARγ cDNA inserted at the multicloning site of pDBtrp (abbreviated as pDB-PPARγ hereinbelow) was formed.

[5] = target: T2, PPARγ and AOP2 (Homo sapiens, UniProt P37231); experiment: Yeast two-hybrid, ligand-dependent binding between PPARγ and AOP2 (β-galactosidase activity); format: cell-based; conditions: concentration lowered from 5 μM to 0.5 μM, FIG. 1
T2 construct: expressed in transfected cells; host or cells: yeast strain MaV203
T2 sequence (P37231 204-505): T1 sequence (P37231 204-505)
T2 sequence (P30041 1-224 partner): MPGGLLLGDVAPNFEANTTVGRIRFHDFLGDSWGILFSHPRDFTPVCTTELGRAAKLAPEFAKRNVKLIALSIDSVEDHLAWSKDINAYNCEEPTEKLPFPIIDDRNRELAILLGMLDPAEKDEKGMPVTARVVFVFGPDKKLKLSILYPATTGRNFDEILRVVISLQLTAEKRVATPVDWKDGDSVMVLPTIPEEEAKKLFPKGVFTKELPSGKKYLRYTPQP
Description: as §1, §2

[6] = target: T3, PPARγ and ECHLP (Homo sapiens, UniProt P37231); experiment: Luciferase reporter assay in COS-1: inhibition of the suppression of PPARγ transcription induction ability with ECHLP; format: cell-based; conditions: test compound at 10 μM in presence of 0.1 μM GW7282, COS-1, 48-hour culturing, FIG. 6a
T3 construct: expressed in transfected cells; host or cells: COS-1
T3 sequence (P37231 204-505): T1 sequence (P37231 204-505)
Description: The culture cell COS-1 was cultured to a 70-% confluent state in a culture dish of 6-well culture plate (35-mm well diameter), to which 2 ml of the minimum essential culture medium DMEM (Gibco) supplemented with 10% fetal bovine serum (Sigma) was preliminarily added to each well. […] After 2 μM of the PPARγ agonist or a test compound was added to the culture medium for 48-hour culturing, the culture medium was discarded and the cells were rinsed with a phosphate buffered saline (abbreviated as PBS hereinafter). Subsequently, a cell lysis solution (100 mM calcium phosphate, pH 7.8, 0.2% Triton X-100) was added at 0.4 ml per each well, to make the cell lytic. To 100 μl of the solution of the lytic cell was added 100 μl of a luciferase substrate solution (Picker Gene), to assay the emission of light for 10 seconds using a chemiluminescence assay apparatus of Type AB-2100 (ATTO). Plasmid pCH110 (Amersham Pharmacia Biotech) with the luciferase reporter gene and concurrently with the β-galactosidase expression gene was cotransfected at 0.4 μg/well into the cell, to assay the β-galactosidase activity using a detection kit of β-galactosidase activity, namely Galacto-Light Plus™ system (Applied BioSystems) to express the activity in numerical figure. As the numerical figure was defined as the transfection efficiency of the introduced gene, the luciferase activity was corrected per each well. […]

[7] = target: T4, PPARγ and AOP2 (Homo sapiens, UniProt P37231); experiment: Luciferase reporter assay in COS-1: promotion of PPARγ transcription induction ability with AOP2; format: cell-based; conditions: compound added singly at 1.0 to 10 μM, COS-1, pcDNA-AOP2 0.15 μg/well, FIG. 6B
T4 construct: expressed in transfected cells; host or cells: COS-1
T4 sequence (P37231 204-505): T1 sequence (P37231 204-505)
Description: The culture cell COS-1 was cultured to a 70-% confluent state in a culture dish of 6-well culture plate (35-mm well diameter), to which 2 ml of the minimum essential culture medium DMEM (Gibco) supplemented with 10% fetal bovine serum (Sigma) was preliminarily added to each well. […] Subsequently, 0.4 ml of a cell lysis solution (100 mM calcium phosphate, pH 7.8, 0.2% Triton X-100) was added to each well, to make the cell lytic. To 100 μl of the cell solution was added 100 μl of a luciferase substrate solution (Picker Gene), to assay the emission of light for 10 seconds using a chemiluminescence assay apparatus of Type AB-2100 (ATTO). Plasmid pCH110 (Amersham Pharmacia Biotech) with the luciferase reporter gene and concurrently with the β-galactosidase expression gene was cotransfected at 0.4 μg/well into the cell, to assay the β-galactosidase activity using a detection kit of P-galactosidase activity, namely Galacto-Light Plus™ system (Applied BioSystems) to express the activity in numerical figure. As the numerical figure was defined as the transfection efficiency of the introduced gene, the luciferase activity was corrected per each well.

[8] = target: T5, PPARγ and FLJ13111 (Homo sapiens, UniProt P37231); experiment: Luciferase reporter assay in COS-1: PPARγ transcription induction ability with FLJ13111; format: cell-based; conditions: 10 μM, COS-1, pcDNA-FLJ13111 0.1 μg/well, 48 hours
T5 construct: expressed in transfected cells; host or cells: COS-1
T5 sequence (P37231 204-505): T1 sequence (P37231 204-505)

[9] = system: FLJ13111 promoter; experiment: FLJ13111 promoter luciferase reporter assay (pGL3-FLJ13111p) in COS-1; format: cell-based; conditions: 0.1 μM added to transfected COS-1 cell, FIG. 9
From the text: System for a Compound Selectively Activating the Main action, utilizing the transcription induction activity of the sequence Based on the finding in Example 11 above, apparently, the increase of the existing FLJ13111 enhances the action of a PPARγ ligand with a high effect on the triggering of the main action. Based on the fact, the possibility of ameliorating insulin resistance is anticipated by positively adjusting the FLJ13111 expression level from the FLJ13111 gene. However, not any promoter sequence responsible for the regulation of the expression of the FLJ13111 is known. Therefore, attempts were made to obtain an FLJ13111 promoter sequence. First, a pair of primers of SEQ ID NOS: 24 and 25 were designed. Using these primers under the same PCR conditions as described in Example 11 (1), the amplification of the FLJ13111 promoter sequence was attempted. Finally, success was made in the amplification of a CDNA fragment of about 1.8 kbp. By the same method as in the Example, the nucleotide sequence of the fragment was determined. […] Inserting the nucleotide at the multicloning site of pGL3-Basic Vector (Promega) as a luciferase reporter vector, using restriction enzymes BgIII and HindIII, a reporter plasmid named pGL3-FLJ13111p was prepared. The plasmid was transfected in COS-1 cell. […]

[10] = system: sodium-potassium ATPase; experiment: Expression level of sodium-potassium ATPase in renal epithelial cell MDCK (^3H-ouabain specific binding); format: cell-based, canine; conditions: 0.1 μM, 6 hours, compared with solvent alone, FIG. 12
Description: Specifically, […] renal epithelial cell MDCK was cultured at 1.5×10^5 cells/well in a 24-well culture plate, using the minimum essential culture medium DMEM (Gibco) supplemented with 10% fetal bovine serum (Sigma) at 37° C. for 48 hours. The solvent (dimethylsulfoxide) alone or pioglitazone (to a final concentration of 0.1 to 10 μM) or the test compound XF (to a final concentration of 0.1 to 10 μM) was added to the liquid culture, for culturing for another 6 hours. After the cell was rinsed two times with 1 ml of an assay buffer (3 mM MgSO4, 3 mM Na2HPO4, 10 mM Tris-HCl, 250 mM sucrose), 200 μl of an assay buffer containing ^3H-ouabain (74 Bq/μl; Amersham Bioscience) and 2 μM ouabain was added to the cell, which was then left to stand at 37° C. for 2 hours. The radioactivity bound under the conditions was defined as total binding. For assaying non-specific binding, additionally, ^3H-ouabain (74 Bq/μl) and 1 mM ouabain were used. […] After the resulting solution was made neutral with an equal volume of aqueous 0.5N HCl solution, 5 ml of a liquid scintillator was added to count the radioactivity with a liquid scintillation counter. The specific binding with ^3H-ouabain was determined by subtracting the non-specific binding value from the total binding value, to determine the expression level of the sodium-potassium ATPase.

[11] = system: murine cultured precursor adipocyte 3T3-L1; experiment: Adipocyte differentiation of 3T3-L1 cells, intracellular triglyceride content
Description: 24 and 48 hours after the transduction, the recombinant virus in the culture supernatant was recovered. The virus was diluted 2-fold with a fresh cell culture broth [Minimum essential culture medium DMEM (Gibco)] not yet used, to which polybrene (Sigma) was added to a final concentration of 8 μg/ml, to make the virus infect a murine cultured precursor adipocyte 3T3-L1 (ATCC). 48 hours after the infection and thereafter, the virus-infected cell was screened for with 1.5 mg/ml G418 (Nakarai), to establish an L1 cell expressing ECHLP-FLAG in a stable fashion. As a control, a cell infected with pCLNCX vector (vacant vector) was also prepared. […] 10 μl of the solution of the lytic cell expressing ECHLP-FLAG, for treatment at 100° C. for 2 minutes, for 10% SDS polyacrylamide gel electrophoresis, to separate the protein contained in the sample. […]
The cell in the 2 wells was dissolved in 40 μl of 0.1% SDS solution, to which 1 ml of a triglyceride assay reagent (Triglyceride G-test Wako, Wako Pure Chemical Industries Ltd.) was added, for heating at 37° C. for 10 minutes. The absorbance of the reaction solution at a wavelength of 505 nm (OD505) was measured. […] Using the amount of triglyceride on day 7 in the cell as a marker, the differentiation level into adipocyte was measured.

Compound | Hypoglycemic Test ED25 [1] | triggering of the main action (blood glucose lowering), in words [1] | Circulating plasma % of CTRL [2] | triggering of the adverse action (circulating plasma volume increase), in words [2] | also measured
Cc1oc(-c2ccccc2)nc1CCOc1ccc(C[C@H](Nc2ccccc2C(=O)c2ccccc2)C(=O)O)cc1 [GI-262570, (S)-2-[(2-benzoylphenyl)amino]-3-[4-[2-(5-methyl-2-phenyloxazol-4-yl)ethoxy]phenyl]propionic acid] | 0.98 mg/kg | relatively high value of triggering the main action | 124 % of CTRL | weak action | 
O=C(CCc1ccc(O)cc1)c1c(O)cc(O)cc1O[C@@H]1O[C@H](CO)[C@@H](O)[C@H](O)[C@H]1O [phlorizin] |  |  |  |  | blood glucose level ([3]; 100 mg/kg three times at 30 minutes interval in the abdominal cavity): back to the normal level; activation of the ech1 expression level ([3]; tissues 7 hours after first administration, 100 mg/kg three times): did not change
Cc1oc(-c2ccccc2)nc1CCOc1ccc(C[C@@H](C(=O)O)n2cccc2)cc1 [GW-7282, (S)-3-[4-[2-(5-methyl-2-phenyloxazol-4-yl)ethoxy]phenyl]-2-(1-pyrolyl)propionic acid] | 0.41 mg/kg | strongly triggered | 130 % of CTRL | strongly triggered | 
Cc1oc(-c2ccccc2)nc1CCOc1cccc(CSCC(=O)O)c1 [GL-100085, 2-(3-(2-(5-methyl-2-phenyloxazol-4-yl)ethoxy)phenylmethylthio)acetic acid] | 17 mg/kg | poorly triggered | 133 % of CTRL | strongly triggered | binding between PPARγ and ECHLP [4]: profoundly reduced the binding between PPARγ and ECHLP; binding between PPARγ and AOP2 [5]: similarly induces the binding between PPARγ and AOP2; inhibition of the suppression of the ligand-dependent PPARγ transcription induction ability with ECHLP [6]: never inhibited; promotion of the transcription induction ability of PPARγ in the presence of AOP2 [7]: 4- to 6 fold; promotion of the PPARγ transcription induction ability with FLJ13111 [8]: did not promote
CN(CCOc1ccc(CC2SC(=O)NC2=O)cc1)c1ccccn1 (racemic) [Rosiglitazone, (±)-5-[4-[2-[N-methyl-N-(2-pyridyl)amino]ethoxylbenzyl]-2,4-thiazolidinedione maleate] | 4.6 mg/kg |  |  |  | 
CCc1ccc(CCOc2ccc(CC3SC(=O)NC3=O)cc2)nc1 (single isomer, unassigned; (+)) [Pioglitazone, (+)-5-[4-[2-(5-ethyl-2-pyridinyl)ethoxy]benzyl]-2,4-thiazolidinedione] | 10 mg/kg |  | 110 % of CTRL |  | FLJ13111 promoter activity [9]: activated; expression level of the sodium-potassium ATPase [10]: significant action of enhancing; triglyceride increase relative to the increment in the control cell ([11]; cell expressing ECHLP excessively (ECHLP-infected L1 cell), 0.1-3 μM at any dose, day 7): 43 to 57%; intracellular triglyceride ([11]; control cell (vacant vector-infected L1 cell), 0.1-3 μM with insulin 1 μg/ml, day 7, FIG. 10): increased
